Experimental data from the NIST ThermoML archive (doi:10.1021/je050050p).

Assay: xn = mol fraction of the nth substance listed
Settings: Liquid, Vibrating tube method

CN(C)C=O [dimethylformamide] + O=C=O
Settings | mass density [kg/m3]
313.13 K, 8014 kPa, x2 = 0.6235 | 949.79
313.13 K, 9041 kPa, x2 = 0.6235 | 952.04
313.13 K, 10057 kPa, x2 = 0.6235 | 954.25
313.13 K, 10998 kPa, x2 = 0.6235 | 956.28
313.13 K, 11991 kPa, x2 = 0.6235 | 958.34
313.13 K, 12985 kPa, x2 = 0.6235 | 960.34
313.13 K, 14000 kPa, x2 = 0.6235 | 962.36
313.13 K, 14996 kPa, x2 = 0.6235 | 964.28
313.13 K, 16016 kPa, x2 = 0.6235 | 966.23
313.13 K, 16993 kPa, x2 = 0.6235 | 968.02
313.13 K, 18006 kPa, x2 = 0.6235 | 969.86
313.13 K, 18988 kPa, x2 = 0.6235 | 971.7
313.13 K, 20033 kPa, x2 = 0.6235 | 973.47
313.13 K, 21061 kPa, x2 = 0.6235 | 975.25
313.13 K, 22021 kPa, x2 = 0.6235 | 976.88
313.13 K, 22996 kPa, x2 = 0.6235 | 978.52
313.13 K, 24001 kPa, x2 = 0.6235 | 980.14
313.13 K, 25034 kPa, x2 = 0.6235 | 981.79
313.14 K, 9015 kPa, x2 = 0.8091 | 920.03
313.14 K, 9992 kPa, x2 = 0.8091 | 923.92
313.14 K, 10006 kPa, x2 = 0.9311 | 835.47
313.14 K, 11003 kPa, x2 = 0.8091 | 927.79
313.14 K, 11013 kPa, x2 = 0.9311 | 846.13
313.14 K, 12022 kPa, x2 = 0.8091 | 931.54
313.14 K, 12041 kPa, x2 = 0.9311 | 855.75
313.14 K, 13011 kPa, x2 = 0.8091 | 934.99
313.14 K, 13017 kPa, x2 = 0.9311 | 864.01
313.14 K, 14003 kPa, x2 = 0.8091 | 938.37
313.14 K, 14036 kPa, x2 = 0.9311 | 871.87
313.14 K, 15006 kPa, x2 = 0.8091 | 941.63
313.14 K, 15031 kPa, x2 = 0.9311 | 878.95
313.14 K, 16000 kPa, x2 = 0.8091 | 944.75
313.14 K, 16006 kPa, x2 = 0.9311 | 885.43
313.14 K, 16988 kPa, x2 = 0.8091 | 947.8
313.14 K, 17030 kPa, x2 = 0.9311 | 891.82
313.14 K, 17988 kPa, x2 = 0.9311 | 897.48
313.14 K, 18019 kPa, x2 = 0.8091 | 950.82
313.14 K, 18996 kPa, x2 = 0.8091 | 953.63
313.14 K, 19037 kPa, x2 = 0.9311 | 903.28
313.14 K, 20022 kPa, x2 = 0.9311 | 908.47
313.14 K, 20032 kPa, x2 = 0.8091 | 956.51
313.14 K, 21000 kPa, x2 = 0.9311 | 913.41
313.14 K, 21035 kPa, x2 = 0.8091 | 959.25
313.14 K, 21995 kPa, x2 = 0.8091 | 961.81
313.14 K, 22002 kPa, x2 = 0.9311 | 918.23
313.14 K, 23016 kPa, x2 = 0.9311 | 922.92
313.14 K, 23033 kPa, x2 = 0.8091 | 964.52
313.14 K, 24006 kPa, x2 = 0.9311 | 927.35
313.14 K, 24015 kPa, x2 = 0.8091 | 966.98
313.14 K, 25006 kPa, x2 = 0.8091 | 969.42
313.14 K, 25020 kPa, x2 = 0.9311 | 931.7
313.15 K, 4032 kPa, x2 = 0.2876 | 948.43
313.15 K, 5041 kPa, x2 = 0.2876 | 949.39
313.15 K, 6004 kPa, x2 = 0.2876 | 950.24
313.15 K, 6005 kPa, x2 = 0.4268 | 955.61
313.15 K, 6022 kPa, x2 = 0.4461 | 956.18
313.15 K, 6967 kPa, x2 = 0.2876 | 951.12
313.15 K, 6991 kPa, x2 = 0.4461 | 957.31
313.15 K, 7013 kPa, x2 = 0.4268 | 956.75
313.15 K, 8002 kPa, x2 = 0.2876 | 952.05
313.15 K, 8008 kPa, x2 = 0.4268 | 957.9
313.15 K, 8024 kPa, x2 = 0.4461 | 958.53
313.15 K, 9005 kPa, x2 = 0.2876 | 952.94
313.15 K, 9006 kPa, x2 = 0.4461 | 959.66
313.15 K, 9014 kPa, x2 = 0.4268 | 958.99
313.15 K, 9998 kPa, x2 = 0.4461 | 960.8
313.15 K, 10000 kPa, x2 = 0.2876 | 953.81
313.15 K, 10006 kPa, x2 = 0.4268 | 960.05
313.15 K, 10989 kPa, x2 = 0.4461 | 961.9
313.15 K, 11017 kPa, x2 = 0.2876 | 954.68
313.15 K, 11017 kPa, x2 = 0.4268 | 961.14
313.15 K, 12006 kPa, x2 = 0.4268 | 962.22
313.15 K, 12024 kPa, x2 = 0.2876 | 955.56
313.15 K, 12025 kPa, x2 = 0.4461 | 963.02
313.15 K, 13003 kPa, x2 = 0.4461 | 964.12
313.15 K, 13004 kPa, x2 = 0.4268 | 963.25
313.15 K, 13007 kPa, x2 = 0.2876 | 956.41
313.15 K, 13997 kPa, x2 = 0.4268 | 964.28
313.15 K, 13999 kPa, x2 = 0.4461 | 965.2
313.15 K, 14004 kPa, x2 = 0.2876 | 957.26
313.15 K, 14993 kPa, x2 = 0.4461 | 966.26
313.15 K, 15003 kPa, x2 = 0.4268 | 965.36
313.15 K, 15006 kPa, x2 = 0.2876 | 958.1
